Results reported in patent US11377425B1, “Small molecule modulators of IL-17” (LEO Pharma A/S, priority 2018, dated 2022).

What follows are compounds tested against T1, human IL-17AA (Homo sapiens, UniProt Q16552) (assay: IL-8 release assay in human epithelial keratinocytes adult (HEKa)). Settings: HEKa cells, 3 ng/mL HEK-human IL-17AA + 10 ng/mL human TNFalpha; read-out: Rel EC50 IL-8 release assay.
T1 construct: host or cells: HEK (human embryonic kidney) cells
T1 sequence (Q16552 24-155): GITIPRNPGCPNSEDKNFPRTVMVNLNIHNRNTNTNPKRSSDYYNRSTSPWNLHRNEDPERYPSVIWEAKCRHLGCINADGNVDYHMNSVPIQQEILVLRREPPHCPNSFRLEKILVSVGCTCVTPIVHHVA
Format: cell-based
Procedure, shortened: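 IL-8 release, quantified by HTRF and normalized to controls, reports IL-17 signaling in HEKa cells treated with compound plus final 3 ng/mL IL-17AA (HEK-derived) and 10 ng/mL TNF-alpha for 68-72 h; TNF-alpha-only wells set 100% inhibition. Four-parameter logistic fits (r^2>0.9) give relative IC50 and Emax; PrestoBlue flags cytotoxicity.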

Structure (SMILES) | EC50 [nM]
Cc1n[nH]c(C)c1-c1ccc(NC(=O)[C@@H](NC(=O)c2ccnn2C)C2C(C)(C)C2(C)C)cc1 [Example 245, N-[(1S)-2-[4-(3,5-dimethyl-1H-pyrazol-4-yl)anilino]-2-oxo-1-(2,2,3,3-tetramethylcyclopropyl)ethyl]-2-methyl-pyrazole-3-carboxamide] | 100 to 1000
Cc1n[nH]c(C)c1-c1ccc(NC(=O)[C@@H](NC(=O)c2ccnn2C)C2[C@H]3CCCC[C@@H]23)cc1 (stereo partly drawn) [Example 246, N-[(1S)-2-[4-(3,5-dimethyl-1H-pyrazol-4-yl)anilino]-1-[(1S,6R)-norcaran-7-yl]-2-oxo-ethyl]-2-methyl-pyrazole-3-carboxamide] | 100 to 1000
Cc1n[nH]c(C)c1-c1ccc(NC(=O)[C@@H](NC(=O)c2ccnn2C)[C@H]2CCc3c(F)cc(F)cc32)cc1 [Example 249, N-[(1S)-1-[(1S)-4,6-difluoroindan-1-yl]-2-[4-(3,5-dimethyl-1H-pyrazol-4-yl)anilino]-2-oxo-ethyl]-2-methyl-pyrazole-3-carboxamide] | < 100
Cc1n[nH]c(C)c1-c1ccc(NC(=O)C(NC(=O)c2ccnn2C)[C@H]2CCCc3ccc(F)cc32)cc1 (stereo partly shown) [Example 261] | < 100
Cc1n[nH]c(C)c1-c1ccc(NC(=O)[C@@H](NC(=O)c2ccnn2C)[C@@H]2CCCc3c(F)cc(Br)cc32)cc1 [Example 262] | 100 to 1000
CCn1nccc1C(=O)N[C@H](C(=O)Nc1ccc(-c2c(C)n[nH]c2C)cc1)C1CCC2(CC1)CC2 [Example 264, N-[(1S)-2-[4-(3,5-dimethyl-1H-pyrazol-4-yl)anilino]-2-oxo-1-spiro[2.5]octan-6-yl-ethyl]-2-ethyl-pyrazole-3-carboxamide] | 100 to 1000
Cc1n[nH]c(C)c1-c1ccc(NC(=O)[C@@H](NC(=O)c2cnnn2C)C(C2CCC2)C2CCC2)cc1 [Example 272, N-[(1S)-1-[di(cyclobutyl)methyl]-2-[4-(3,5-dimethyl-1H-pyrazol-4-yl)anilino]-2-oxo-ethyl]-3-methyl-triazole-4-carboxamide] | < 100
Cc1n[nH]c(C)c1-c1ccc(NC(=O)[C@@H](NC(=O)c2cnnn2C(C)C)C(C2CCC2)C2CCC2)cc1 [Example 273, N-[(1S)-1-[di(cyclobutyl)methyl]-2-[4-(3,5-dimethyl-1H-pyrazol-4-yl)anilino]-2-oxo-ethyl]-3-isopropyl-triazole-4-carboxamide] | < 100
CCc1nocc1C(=O)N[C@H](C(=O)Nc1ccc(-c2c(C)n[nH]c2C)cc1)C1CCCCC1 [Example 276, N-[(1S)-1-cyclohexyl-2-[4-(3,5-dimethyl-1H-pyrazol-4-yl)anilino]-2-oxo-ethyl]-3-ethyl-isoxazole-4-carboxamide] | < 100
Cc1n[nH]c(C)c1-c1ccc(NC(=O)[C@@H](NC(=O)c2conc2C(C)C)C2CCCCC2)cc1 [Example 277, N-[(1S)-1-cyclohexyl-2-[4-(3,5-dimethyl-1H-pyrazol-4-yl)anilino]-2-oxo-ethyl]-3-isopropyl-isoxazole-4-carboxamide] | < 100
Cc1n[nH]c(C)c1-c1ccc(NC(=O)[C@H](CC(C)(C)C)NC(=O)c2ccnn2C)cc1 [Example 281] | 100 to 1000
Cc1n[nH]c(C)c1-c1ccc(NC(=O)[C@@H](NC(=O)c2csc3cnccc23)C2CCCCC2)cc1 [Example 286, N-[(1S)-1-cyclohexyl-2-[4-(3,5-dimethyl-1H-pyrazol-4-yl)anilino]-2-oxo-ethyl]thieno[2,3-c]pyridine-3-carboxamide] | 100 to 1000
Cc1n[nH]c(C)c1-c1ccc(NC(=O)[C@@H](NC(=O)c2ccnn2C(C)C)[C@H]2CCOc3c(F)cccc32)cc1 [Example 287, N-[(1S)-2-[4-(3,5-dimethyl-1H-pyrazol-4-yl)anilino]-1-[(4S)-8-fluorochroman-4-yl]-2-oxo-ethyl]-2-isopropyl-pyrazole-3-carboxamide] | < 100
Cc1n[nH]c(C)c1-c1ccc(NC(=O)[C@@H](NC(=O)c2ccnn2C(C)C)[C@H]2CCOc3cc(F)ccc32)cc1 [Example 288, N-[(1S)-2-[4-(3,5-dimethyl-1H-pyrazol-4-yl)anilino]-1-[(4S)-7-fluorochroman-4-yl]-2-oxo-ethyl]-2-isopropyl-pyrazole-3-carboxamide] | < 100

The remaining lines, values ahead:

EC50 [nM] | Structure (SMILES)
> 1000 | Cc1n[nH]c(C)c1-c1ccc(NC(=O)[C@H](CC2CC2)NC(=O)c2ccnn2C)cc1 [Example 243, N-[(1S)-1-(cyclopropylmethyl)-2-[4-(3,5-dimethyl-1H-pyrazol-4-yl)anilino]-2-oxo-ethyl]-2-methyl-pyrazole-3-carboxamide]
< 100 | Cc1n[nH]c(C)c1-c1ccc(NC(=O)[C@@H](NC(=O)c2ccnn2C)C(C(C)C)C(C)C)cc1 [Example 244]
< 100 | Cc1n[nH]c(C)c1-c1ccc(NC(=O)[C@@H](NC(=O)c2ccnn2C)[C@H]2CCCC3(CC3)C2)cc1 [Example 250, N-[(1S)-2-[4-(3,5-dimethyl-1H-pyrazol-4-yl)anilino]-2-oxo-1-[(7S)-spiro[2.5]octan-7-yl]ethyl]-2-methyl-pyrazole-3-carboxamide]
< 100 | Cc1n[nH]c(C)c1-c1ccc(NC(=O)C(NC(=O)c2ccnn2C(C)C)C2CCCC2C)cc1 (stereo not shown) [Example 251, N-[2-[4-(3,5-dimethyl-1H-pyrazol-4-yl)anilino]-1-(2-methylcyclopentyl)-2-oxo-ethyl]-2-isopropyl-pyrazole-3-carboxamide]
> 1000 | Cc1n[nH]c(C)c1-c1ccc(NC(=O)[C@H](CC2CCC(F)(F)CC2)NC(=O)c2ccnn2C)cc1 [Example 253, N-[(1S)-1-[(4,4-difluorocyclohexyl)methyl]-2-[4-(3,5-dimethyl-1H-pyrazol-4-yl)anilino]-2-oxo-ethyl]-2-methyl-pyrazole-3-carboxamide]
100 to 1000 | Cc1n[nH]c(C)c1-c1ccc(NC(=O)[C@@H](NC(=O)c2conc2C(C)C)C2CCC3(CC2)CC3)cc1 [Example 263, N-[(1S)-2-[4-(3,5-dimethyl-1H-pyrazol-4-yl)anilino]-2-oxo-1-spiro[2.5]octan-6-yl-ethyl]-3-isopropyl-isoxazole-4-carboxamidet]
100 to 1000 | Cc1n[nH]c(C)c1-c1ccc(NC(=O)C(NC(=O)c2ccnn2C(C)C)C2CCC(C)(C)C2)cc1 (stereo not shown) [Example 265, N-[1-(3,3-dimethylcyclopentyl)-2-[4-(3,5-dimethyl-1H-pyrazol-4-yl)anilino]-2-oxo-ethyl]-2-isopropyl-pyrazole-3-carboxamide]
100 to 1000 | Cc1n[nH]c(C)c1-c1ccc(NC(=O)C(NC(=O)c2ccnn2C)C2CCC(C)(C)C2)cc1 (stereo not shown) [Example 266, N-[1-(3,3-dimethylcyclopentyl)-2-[4-(3,5-dimethyl-1H-pyrazol-4-yl)anilino]-2-oxo-ethyl]-2-methyl-pyrazole-3-carboxamide]
> 1000 | Cc1n[nH]c(C)c1-c1ccc(NC(=O)[C@@H](NC(=O)c2ccnn2C)C2[C@H]3CCC[C@@H]23)cc1 (stereo partly drawn) [Example 267, N-[(1S)-1-[(1S,5R)-6-bicyclo[3.1.0]hexanyl]-2-[4-(3,5-dimethyl-1H-pyrazol-4-yl)anilino]-2-oxo-ethyl]-2-methyl-pyrazole-3-carboxamide]
100 to 1000 | CCn1nncc1C(=O)N[C@H](C(=O)Nc1ccc(-c2c(C)n[nH]c2C)cc1)C(C1CC1)C1CC1 [Example 270, N-[(1S)-1-(dicyclopropylmethyl)-2-[4-(3,5-dimethyl-1H-pyrazol-4-yl)anilino]-2-oxo-ethyl]-3-ethyl-triazole-4-carboxamide]
< 100 | CCn1nncc1C(=O)N[C@H](C(=O)Nc1ccc(-c2c(C)n[nH]c2C)cc1)C(C1CCC1)C1CCC1 [Example 271, N-[(1S)-1-[di(cyclobutyl)methyl]-2-[4-(3,5-dimethyl-1H-pyrazol-4-yl)anilino]-2-oxo-ethyl]-3-ethyl-triazole-4-carboxamide]
< 100 | Cc1nocc1C(=O)N[C@H](C(=O)Nc1ccc(-c2c(C)n[nH]c2C)cc1)C(C1CCC1)C1CCC1 [Example 274, N-[(1S)-1-[di(cyclobutyl)methyl]-2-[4-(3,5-dimethyl-1H-pyrazol-4-yl)anilino]-2-oxo-ethyl]-3-methyl-isoxazole-4-carboxamide]
> 1000 | Cc1n[nH]c(C)c1-c1ccc(NC(=O)[C@@H](NC(=O)c2nccn2C)C2CCCCC2)cc1 [Example 275, N-[(1S)-1-cyclohexyl-2-[4-(3,5-dimethyl-1H-pyrazol-4-yl)anilino]-2-oxo-ethyl]-1-methyl-imidazole-2-carboxamide]
100 to 1000 | Cc1n[nH]c(C)c1-c1ccc(NC(=O)[C@@H](NC(=O)c2ccnn2C)[C@@H]2CCc3c(F)cc(Br)cc32)cc1 [Example 278, N-[(1S)-1-[(1R)-6-bromo-4-fluoro-indan-1-yl]-2-[4 (3,5-dimethyl-1H-pyrazol-4-yl)anilino]-2-oxo-ethyl]-2-methyl-pyrazole-3-carboxamide]
< 100 | Cc1n[nH]c(C)c1-c1ccc(NC(=O)[C@@H](NC(=O)c2ccnn2C(C)C)[C@H]2CCOc3c(F)cc(F)cc32)cc1 [Example 279, N-[(1S)-1-[(4S)-6,8-difluorochroman-4-yl]-2-[4-(3,5-dimethyl-1H-pyrazol-4-yl)anilino]-2-oxo-ethyl]-2-isopropyl-pyrazole-3-carboxamide]
100 to 1000 | Cc1n[nH]c(C)c1-c1ccc(NC(=O)C(NC(=O)c2ccnn2C(C)C)C(C)C2CC2)cc1 (stereo not shown) [Example 282]
100 to 1000 | Cc1n[nH]c(C)c1-c1ccc(NC(=O)[C@@H](NC(=O)c2ccnn2C(C)C)[C@@H](C)C2CC2)cc1 [Example 283, N-[(1S,2S)-2-cyclopropyl-1-[4-(3,5-dimethyl-1H-pyrazol-4-yl)phenyl]carbamoyl] propyl-2-isopropyl-pyrazole-3-carboxamide]
